The subject of experiment [1] is CAL-39 (Other Solid Carcinomas). Nature of the experiment: Bliss excess, mean over the matrix (fraction); higher = more synergy. Summed up: (§1)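 Cell lines in DMEM/F12 or RPMI with 10% FBS were plated in 1536-well plates, held 24 hours at 37°C, 5% CO2, then given two-drug dose matrices for 72 hours (DMSO typically 0.2%). Viability was read by CellTiter-Glo 2.0 luminescence and scaled as inhibition from 0 (vehicle wells) to 1 (blank wells). Combination Emax is the second-highest inhibition in the matrix; Bliss excess is observed combination effect minus expected EA + EB − EA·EB, EA and EB being single-agent effects.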

Experiment [2] relates to CS1 (Chondrosarcoma). Described as above. Summed up:
as §1

The subject of the next experiment is D-392MG (Glioblastoma). The description is as above. A digest of the protocol:
as §1

Experiment [3] concerns FU-OV-1 (Ovarian Carcinoma). Described as above. A digest of the protocol:
as §1

Experiment [4] concerns HCT-116 (Colorectal Carcinoma). The description is as above. Summed up:
as §1

Experiment [5] deals with MSTO-211H (Mesothelioma). Described as above. A digest of the protocol:
as §1

Experiment [6] relates to NOMO-1 (Acute Myeloid Leukemia). Described as above. A digest of the protocol:
as §1

Experiment [7] has as its system P31-FUJ (Acute Myeloid Leukemia). Described as above. Summed up:
as §1

The next experiment deals with SK-MEL-1 (Melanoma). Described as above. Summed up:
as §1

In experiment [8] the test system is SNG-M (Endometrial Carcinoma). The experiment is described as above. Summed up: as §1
Experiment [9] deals with SW48 (Colorectal Carcinoma). The experiment is described as above. A digest of the protocol: as §1
Experiment [10] deals with SW948 (Colorectal Carcinoma). Described as above. A digest of the protocol: as §1
The subject of experiment [11] is WSU-DLCL2 (B-Cell Non-Hodgkin's Lymphoma). The experiment is described as above. A digest of the protocol: as §1
Experiment [12] relates to CAL-39 (Other Solid Carcinomas). The experiment can be described thus: combination Emax (second highest fraction inhibited in the dose matrix, 72 h); higher = more inhibition; extreme values may be limits of the assay. A digest of the protocol:
as §1

Experiment [13] deals with CS1 (Chondrosarcoma). Described as above. A digest of the protocol: as §1
The subject of experiment [14] is HCT-116 (Colorectal Carcinoma). The description is as above. A digest of the protocol:
as §1

The test system of experiment [15] is MEG-01 (Chronic Myelogenous Leukemia). The description is as above. A digest of the protocol:
as §1

For experiment [16], the system named is MSTO-211H (Mesothelioma). The description is as above. A digest of the protocol: as §1
Experiment [17] concerns SW48 (Colorectal Carcinoma). Described as above. A digest of the protocol: as §1
Experiment [18] deals with TC-YIK (Other Solid Carcinomas). The description is as above. Summed up:
as §1
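For Bliss excess, mean over the matrix in this document: after 72 h of two-drug dosing.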

`Cc1c2c(nn1C)CSCc1cc(n(C)n1)CSc1cc(c3ccccc3c1)OCCCc1c(C(=O)O)n(C)c3c-2c(Cl)ccc13` [AZD5991] + CS(=O)(=O)CCNCc1ccc(-c2ccc3ncnc(Nc4ccc(OCc5cccc(F)c5)c(Cl)c4)c3c2)o1 [Lapatinib] (first compound max 1 µM, 7x7, partner max 10 µM): the Bliss excess in experiment [1] is 0.0372; in the experiment with CS1 (Chondrosarcoma) [2], -0.0458; with D-392MG (Glioblastoma) it was -0.0727; in [3] it was -0.0179; in experiment [4] it was -0.0365; with MSTO-211H (Mesothelioma) [5] it was 0.0121. Further, the Bliss excess is -0.0873 in experiment [6]; -0.0445 in experiment [7]; 0.026 in the experiment on SK-MEL-1 (Melanoma); -0.0254 in [8]; 0.0213 in experiment [9]; -0.0171 in [10]. Further, the Bliss excess in [11] was 0.0601. In addition, the “combination Emax” value came to 0.998 in [12]; 0.506 in the experiment on CS1 (Chondrosarcoma) [13]; 0.382 in experiment [14]; 0.557 in experiment [15]; 0.193 in the experiment on MSTO-211H (Mesothelioma) [16]; 0.649 in [17]. Moreover, the “combination Emax” value in [18] is 0.26.
In the case of `Cc1c2c(nn1C)CSCc1cc(n(C)n1)CSc1cc(c3ccccc3c1)OCCCc1c(C(=O)O)n(C)c3c-2c(Cl)ccc13` [AZD5991] + Nc1ccn([C@@H]2O[C@H](CO)[C@@H](O)C2(F)F)c(=O)n1 [Gemcitabine] (first compound max 1 µM, 7x7, partner max 0.3 µM), the Bliss excess in experiment [1] was 0.0269; in the experiment on CS1 (Chondrosarcoma) [2], -0.0411; with D-392MG (Glioblastoma), -0.112; in experiment [3], -0.0321; in experiment [4], -0.0854; with MSTO-211H (Mesothelioma) [5] it was -0.0131. Moreover, the Bliss excess was -0.0065 in [6]; 0.0115 in experiment [7]; -0.0226 with SK-MEL-1 (Melanoma); -0.0174 in [8]; -0.0377 in experiment [9]; 0.0016 in experiment [10]. Further, the Bliss excess in experiment [11] is 0.0128. Further, the “combination Emax” value in experiment [12] is 0.899; with CS1 (Chondrosarcoma) [13], 0.445; in experiment [14], 0.828; in experiment [15], 0.745; in the experiment on MSTO-211H (Mesothelioma) [16] it was 0.861; in experiment [17], 0.822. Moreover, in [18], the “combination Emax” value was determined as 0.877.
Take `C[C@@H]1COCCN1c1cc(C2([S@](C)(=N)=O)CC2)nc(-c2ccnc3[nH]ccc23)n1` [AZD6738] + C1CC(C1)(C(=O)[O-])C(=O)[O-].N.N.[Pt+2] [Carboplatin] (first compound max 10 µM, 7x7, partner max 10 µM): the Bliss excess was -0.0128 in [1]; -0.0674 with CS1 (Chondrosarcoma) [2]; -0.0311 with D-392MG (Glioblastoma); -0.0576 in experiment [3]; 0.0014 in experiment [4]; -0.0319 in the experiment on MSTO-211H (Mesothelioma) [5]. Besides, the Bliss excess was -0.0037 in [6]; -0.0078 in [7]; -0.048 in the experiment on SK-MEL-1 (Melanoma); -0.0448 in experiment [8]; -0.0577 in [9]; -0.0659 in experiment [10]. Further, the Bliss excess in experiment [11] turned out to be 0.0217. The “combination Emax” value in experiment [12] is 0.609; in the experiment with CS1 (Chondrosarcoma) [13] it was 0.548; in [14], 0.664; in [15], 0.923; in the experiment with MSTO-211H (Mesothelioma) [16], 0.45; in experiment [17], 0.673. Further, the “combination Emax” value in [18] came out at 0.802.
As for `C[C@@H]1COCCN1c1cc(C2([S@](C)(=N)=O)CC2)nc(-c2ccnc3[nH]ccc23)n1` [AZD6738] + Nc1ccn([C@@H]2O[C@H](CO)[C@@H](O)C2(F)F)c(=O)n1 [Gemcitabine] (first compound max 10 µM, 7x7, partner max 0.3 µM), the Bliss excess in experiment [1] is 0.0523; in the experiment on CS1 (Chondrosarcoma) [2] it was 0.075; with D-392MG (Glioblastoma), -0.0224; in experiment [3] it was -0.0143; in experiment [4], 0.0252; with MSTO-211H (Mesothelioma) [5] it was 0.0098. The Bliss excess was 0.058 in experiment [6]; 0.0545 in experiment [7]; 0.0174 in the experiment on SK-MEL-1 (Melanoma); -0.0277 in experiment [8]; -0.0329 in experiment [9]; 0.0448 in [10]. For the same compound, in [11], the Bliss excess was found to be 0.0721. Moreover, the “combination Emax” value in experiment [12] amounted to 0.961; in the experiment with CS1 (Chondrosarcoma) [13], 0.734; in [14], 0.947; in [15], 0.945; in the experiment on MSTO-211H (Mesothelioma) [16] it was 0.855; in experiment [17] it was 0.818. Also, the “combination Emax” value in experiment [18] came to 0.893.
Consider `Cc1cc2ncnn2cc1Nc1ncc2c(n1)n(C1CCOCC1)c(=O)n2C` [AZD7648] + COc1cc([C@@H]2c3cc4c(cc3[C@@H](O[C@@H]3O[C@@H]5CO[C@@H](C)O[C@H]5[C@H](O)[C@H]3O)[C@H]3COC(=O)[C@H]23)OCO4)cc(OC)c1O [Etoposide] (first compound max 10 µM, 7x7, partner max 10 µM), for which the Bliss excess in experiment [1] was 0.0364; with CS1 (Chondrosarcoma) [2], 0.017; in the experiment with D-392MG (Glioblastoma) it was 0.0658; in [3], -0.0047; in experiment [4], 0.13; in the experiment with MSTO-211H (Mesothelioma) [5] it was 0.0624. The Bliss excess in experiment [6] was 0.113; in experiment [7], 0.101; with SK-MEL-1 (Melanoma), 0.0651; in experiment [8] it was 0.157; in [9], 0.0487; in experiment [10], -0.0456. Also, the Bliss excess in [11] was determined as 0.185. Besides, the “combination Emax” value worked out at 0.701 in [12]; 0.649 with CS1 (Chondrosarcoma) [13]; 0.725 in [14]; 0.854 in experiment [15]; 0.783 in the experiment on MSTO-211H (Mesothelioma) [16]; 0.883 in [17]. Further, the “combination Emax” value in [18] turned out to be 0.976.
`C[C@@H](Nc1cc(F)cc(F)c1)c1cc(C(=O)N(C)C)cc2c(=O)cc(N3CCOCC3)oc12` [AZD8186] + C1CN(CCC1(C(=O)N[C@@H](CCO)C2=CC=C(C=C2)Cl)N)C3=NC=NC4=C3C=CN4 [AZD5363] (first compound max 10 µM, 7x7, partner max 10 µM): the Bliss excess in experiment [1] is 0.0492; with CS1 (Chondrosarcoma) [2], -0.0711; in the experiment on D-392MG (Glioblastoma) it was -0.122; in experiment [3] it was -0.117; in experiment [4], -0.0362; in the experiment with MSTO-211H (Mesothelioma) [5], 0.0272. For the same compound, the Bliss excess was 0.0385 in [6]; -0.03 in [7]; -0.039 with SK-MEL-1 (Melanoma); -0.0046 in [8]; -0.024 in experiment [9]; 0.0414 in experiment [10]. Besides, the Bliss excess in experiment [11] was -0.0155. Further, the “combination Emax” value in experiment [12] turned out to be 0.667; with CS1 (Chondrosarcoma) [13], 0.264; in [14], 0.47; in experiment [15] it was 0.226; in the experiment with MSTO-211H (Mesothelioma) [16] it was 0.265; in [17], 0.557. Further, the “combination Emax” value in experiment [18] is 0.294.
Take `N#Cc1cnc(Nc2cc(NC[C@H]3CNCCO3)c(C(F)(F)F)cn2)cn1` [SRA737] + CCc1c2c(nc3ccc(O)cc13)-c1cc3c(c(=O)n1C2)COC(=O)[C@]3(O)CC [SN-38] (first compound max 10 µM, 7x7, partner max 0.3 µM): the Bliss excess is -0.0157 in experiment [1]; -0.0579 in the experiment on CS1 (Chondrosarcoma) [2]; -0.0555 in the experiment on D-392MG (Glioblastoma); -0.0076 in experiment [3]; -0.0306 in experiment [4]; -0.024 with MSTO-211H (Mesothelioma) [5]. Moreover, the Bliss excess in experiment [6] is -0.039; in experiment [7], -0.0541; in experiment [8] it was -0.111; in experiment [9], -0.0411; in experiment [10], 0.154; in experiment [11] it was 0.0055. In addition, the “combination Emax” value in experiment [12] turned out to be 0.93; in the experiment on CS1 (Chondrosarcoma) [13], 0.786; in experiment [14], 0.818; in experiment [15], 0.946; in the experiment on MSTO-211H (Mesothelioma) [16], 0.705; in experiment [17], 0.854. Besides, the “combination Emax” value in [18] worked out at 1.

Values taken from the supplement of paper PMC11061612.
